Assays:
[1] = molecular target: T1, hCA II (Homo sapiens, UniProt P00918); test: hCA II inhibition, stopped-flow CO2 hydration assay; type: biochemical; details: stopped flow technique, mean from three assays
T1 construct: made in house
Experimental: (§4) An Applied Photophysics stopped‐flow instrument was used to assay the CA‐catalyzed CO2 hydration activity [52]. […] The uncatalyzed rates were determined in the same manner and subtracted from the total observed rates. Stock solutions of the inhibitor (0.1 mM) were prepared in distilled–deionized water, and dilutions up to 0.01 nM were done thereafter with the assay buffer. Inhibitor and enzyme solutions were preincubated together for 15 min at room temperature before the assay, to allow for the formation of the E–I complex. The inhibition constants were obtained by Nonlinear least‐squares methods using PRISM 3 and the Cheng‐Prusoff equation as reported earlier and represent the mean from at least three different determinations. All CA isoforms were recombinant proteins obtained in‐house, as reported earlier [54, 55, 56].

[2] = tested on: CNS subpanel; test: NCI-60 five-dose assay, CNS subpanel; type: cell-based; details: Homo sapiens, 48 h
Experimental: (§1) All the compounds were selected for further testing since they fulfilled the set NCI one‐dose screening parameters for threshold inhibition. They were tested at five different concentrations (0.01, 0.1, 1, 10, and 100 μM) for 48 h against the same cell line panel and the dose–response curves along with three response parameters (50% growth inhibitory concentration [GI50], the 50% lethal concentration [LC50], and the total growth inhibition [TGI]) were calculated for every cancer cell line. The full reported data and corresponding graphs are compiled in Supporting Information S1. Average values of GI50, TGI, and LC50 values of all the reported selenoesters in all the subpanels are represented in Figure 4.
(§2) All the reported selenoesters (1–6) were submitted to the DTP of NCI. First, they were screened at a single dose (10^−5 M) against a panel of 60 cancer cell lines derived from different tumor types following the methodology available (https://dtp.cancer.gov/discovery_development/nci-60/methodology.htm). As all the compounds satisfied the threshold inhibition criteria established, they were further assessed at five concentrations (0.01, 0.1, 1, 10, and 100 µM) against the same cell panel to obtain their corresponding dose–response curves and three antitumor parameters (GI50, TGI, and LC50) by regression. GraphPad Prism 7.0 Software was used to represent the corresponding graphs.

[3] = tested on: OVCAR‐5; test: NCI-60 one-dose screen, OVCAR-5; type: cell-based, human; details: 10 µM, 48 h
Experimental: (§3) To explore the potential antiproliferative properties of the newly synthesized derivatives, they were submitted to the National Cancer Institute's (NCI) Developmental Therapeutics Program (DTP) for screening at 10 μM in a panel of approximately 60 human cancer cell lines from different cancer types. The results are reported as the growth percentage (GP), which is the growth of the treated cells with each compound for 48 h compared to the untreated controls (Figure 2). […] The initial screening results are summarized in Figure 2, and the mean GP values of each subpanel are depicted in Figure 3. The full reports are compiled in the Supplementary Section.
as §2

[4] = tested on: Leukemia subpanel; test: NCI-60 five-dose assay, leukemia subpanel; type: cell-based; details: Homo sapiens, 48 h
Experimental: as §1, §2

[5] = tested on: CNS subpanel; test: NCI-60 one-dose screen, CNS subpanel; type: cell-based, human; details: 10 µM, 48 h
Experimental: as §3, §2

[6] = molecular target: T2, hCA I (Homo sapiens, UniProt P00915); test: hCA I inhibition, stopped-flow CO2 hydration assay; type: biochemical; details: stopped flow technique, mean from three assays
T2 construct: made in house
T2 sequence (P00915 whole entry): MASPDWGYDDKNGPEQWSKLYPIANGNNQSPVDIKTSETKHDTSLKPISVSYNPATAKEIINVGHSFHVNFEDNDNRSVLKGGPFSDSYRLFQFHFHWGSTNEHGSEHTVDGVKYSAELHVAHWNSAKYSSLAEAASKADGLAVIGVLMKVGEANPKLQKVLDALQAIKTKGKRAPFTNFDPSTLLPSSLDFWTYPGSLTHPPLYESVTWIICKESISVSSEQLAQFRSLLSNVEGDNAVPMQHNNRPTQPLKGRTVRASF
Experimental: as §4

[7] = molecular target: T3, hCA IX (Homo sapiens, UniProt Q16790); test: biochemical; details: stopped flow technique, mean from three assays
T3 construct: made in house
Experimental: as §4

[8] = tested on: MALME‐3M; test: NCI-60 five-dose assay, MALME-3M; type: cell-based; details: Homo sapiens, 48 h
Experimental: as §1, §2

[9] = tested on: Ovarian subpanel; test: NCI-60 five-dose assay, ovarian subpanel; type: cell-based; details: Homo sapiens, 48 h
Experimental: as §1, §2

[10] = tested on: Prostate subpanel; test: NCI-60 one-dose screen, prostate subpanel; type: cell-based, human; details: 10 µM, 48 h
Experimental: as §3, §2

[11] = tested on: breast cancer cell line HS 578 T; test: NCI-60 five-dose assay, HS 578 T; type: cell-based, human; details: 48 h
Experimental: as §1, §2

[12] = tested on: Ovarian subpanel; test: NCI-60 one-dose screen, ovarian subpanel; type: cell-based, human; details: 10 µM, 48 h
Experimental: as §3, §2

[13] = tested on: Leukemia subpanel; test: NCI-60 one-dose screen, leukemia subpanel; type: cell-based, human; details: 10 µM, 48 h
Experimental: as §3, §2

[14] = tested on: Colon subpanel; test: NCI-60 five-dose assay, colon subpanel; type: cell-based; details: Homo sapiens, 48 h
Experimental: as §1, §2

[15] = tested on: Breast subpanel; test: NCI-60 one-dose screen, breast subpanel; type: cell-based, human; details: 10 µM, 48 h
Experimental: as §3, §2

[16] = molecular target: T4, hCA XII (Homo sapiens, UniProt O43570); test: hCA XII inhibition, stopped-flow CO2 hydration assay; type: biochemical; details: stopped flow technique, mean from three assays
T4 construct: made in house
T4 sequence (O43570 25-354): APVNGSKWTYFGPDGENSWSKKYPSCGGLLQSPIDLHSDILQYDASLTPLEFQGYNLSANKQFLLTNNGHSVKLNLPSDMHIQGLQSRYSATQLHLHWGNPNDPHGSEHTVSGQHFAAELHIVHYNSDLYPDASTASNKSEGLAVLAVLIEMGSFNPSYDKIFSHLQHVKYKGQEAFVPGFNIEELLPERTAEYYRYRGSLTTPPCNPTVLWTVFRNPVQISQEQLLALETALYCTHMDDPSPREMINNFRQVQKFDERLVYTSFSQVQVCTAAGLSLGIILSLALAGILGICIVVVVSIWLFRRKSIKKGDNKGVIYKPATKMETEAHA
Experimental: as §4

[17] = tested on: Renal subpanel; test: NCI-60 one-dose screen, renal subpanel; type: cell-based, human; details: 10 µM, 48 h
Experimental: as §3, §2

[18] = tested on: A498 renal‐resistant cells; test: NCI-60 five-dose assay, A498; type: cell-based; details: Homo sapiens, 48 h
Experimental: as §1, §2

[19] = tested on: HCC‐2998‐resistant colon cancer cells; test: NCI-60 one-dose screen, HCC-2998; type: cell-based, human; details: 10 µM, 48 h
Experimental: as §3, §2

[20] = tested on: Breast subpanel; test: NCI-60 five-dose assay, breast subpanel; type: cell-based; details: Homo sapiens, 48 h
Experimental: as §1, §2

[21] = tested on: NCI‐60 human cancer cell lines; test: NCI-60 one-dose screen, whole panel; type: cell-based; details: 10 µM, 48 h, whole NCI-60 panel
Experimental: as §3, §2

Question: For `O=C(C[Se]C(=O)c1ccccc1)Nc1ccc([N+](=O)[O-])c(C(F)(F)F)c1` [Compound 2, Se‐(2‐((4‐nitro‐3‐(trifluoromethyl)phenyl)amino)‐2‐oxoethyl)benzoselenoate], which Ki [1] is on record?
Answer: 50.4 µM

Question: And the GI50 ([2]; read-out: Mean GI50 CNS)?
Answer: 1.17 µM

Question: And the LC50 ([2]; read-out: Mean LC50 CNS)?
Answer: 5.17 µM

Question: What about the “behaviour in OVCAR‐5” value [3] of the same compound?
Answer: cytotoxic activity

Question: What about the GI50 ([4]; read-out: Mean GI50 Leukemia) of the same compound?
Answer: 0.9 µM

Question: And the CC50 ([4]; read-out: Mean LC50 Leukemia)?
Answer: 4.34 µM

Question: What about the “average growth cell value, CNS” value [5] of the same compound?
Answer: -94.42%

Question: And the Ki [6]?
Answer: > 100 µM

Question: What about the Ki [7] of the same compound?
Answer: 76.3 µM

Question: What about the GI50 [8] of the same compound?
Answer: 0.83 µM

Question: And the GI50 ([9]; read-out: Mean GI50 Ovarian)?
Answer: 1.57 µM

Question: What about the LC50 (50% lethal concentration) ([9]; read-out: Mean LC50 Ovarian) of the same compound?
Answer: 5.83 µM

Question: What about the “average growth cell value, Prostate” value [10] of the same compound?
Answer: -94.40%

Question: What about the “TGI HS 578 T” value [11] of the same compound?
Answer: 0.89 µM

Question: And the GI50 ([11]; Homo sapiens, Hs-578T)?
Answer: 0.28 µM

Question: And the “average growth cell value, Ovarian” value [12]?
Answer: -92.98%

Question: And the “average growth cell value, Leukemia” value [13]?
Answer: -94.69%

Question: And the GI50 ([14]; read-out: Mean GI50 Colon)?
Answer: 2.11 µM

Question: What about the CC50 ([14]; read-out: Mean LC50 Colon) of the same compound?
Answer: 7.68 µM

Question: What about the “average growth cell value, Breast” value [15] of the same compound?
Answer: -83.18%

Question: What about the Ki [16] of the same compound?
Answer: 91.5 µM

Question: What about the “average growth cell value, Renal” value [17] of the same compound?
Answer: -96.22%

Question: What about the GI50 [18] of the same compound?
Answer: 0.8 µM

Question: And the “behaviour in HCC‐2998” value [19]?
Answer: susceptible

Question: And the GI50 ([20]; read-out: Mean GI50 Breast)?
Answer: 1.48 µM

Question: What about the LC50 ([20]; read-out: Mean LC50 Breast) of the same compound?
Answer: 7.68 µM

Question: And the “mean GP (growth percentage)” value [21]?
Answer: −91.96%
